According to patent publication US6777193B1, “Methods for diagnostic and/or treatment of antiphospholipids antibodies-related diseases, and devices” (Escuela Nacional de Ciencias Biologicas, del Instituto …, priority 2000, dated 2004):

Columns and labels:
H308 monoclonal antibody = test: Inhibition of H308 monoclonal antibody by phosphorylated haptens (liposomal-ELISA); type: binding, mouse; conditions: for inhibition of H308 monoclonal antibody reaction with lipidic particles in liposomes: hapten 0.2 to 1.0 μmol
Method: Studies on inhibition of anti-lipidic particles antibodies were carried out using liposomes as antigens and the antigen-antibody reaction was analyzed by the liposomal-ELISA method, which includes the following steps:
A) A first step of addition and incubation, in which an effective quantity of an antigen suspension is added to each one of the wells of the ELISA microtiter plate. This microtiter plate is selected among those with a high lipidic antigens binding property and said microtiter plate is incubated between 25 to 30° C. for 0.25 to 2 h.
B) A second step of addition and incubation, in which an effective quantity of a blocking solution is added to each one of the wells of the ELISA microtiter plate with a high lipidic antigens binding property, and said microtiter plate being incubated at a temperature between 25 to 30° C. for 0.25 to 2 h.
C) A step of elimination of blocking solution, preferably by suction, avoiding that microtiter plate becomes dry when blocking solution is eliminated, because liposomal antigens can be damaged.
D) A step of inhibition of the antibody porter, in which the antibody porter is incubated with a chemical substance, or hapten, that will inhibit the active site that recognizes the antigen in the antibody porter.
E) A third step of addition and incubation, in which an effective quantity of the antibody porter inhibited by the hapten was quickly added, to avoid that microtiter plate becomes dry, to each one of the wells using an antibody porter dilution from 1:5 to 1:1000 into blocking solution. This microtiter plate being incubated for 0.25 to 2 h at a temperature between 25 to 30° C.
F) A first step of washing, in which the microtiter plate is washed with the blocking solution, preferably repeating 4-times and avoiding that microtiter plate becomes dry when eliminating the blocking solution.
G) A fourth step of addition and incubation, in which an effective quantity of a second antibody is added to each one of the wells of microtiter plate. This plate is incubated in the darkness for 0.25 to 2 h at a temperature between 25 to 30° C. Second antibody is selected preferably among antibodies from a different specie to that of the antibody porter and they can be anti-Fc of human IgG, IgA and IgM or of the animal in study, or antibodies anti-Fc of IgM or of IgG depending on the nature of the monoclonal antibody when this is the antibody porter. Second antibody is used in a final dilution into blocking solution between […] and 1:3500 and it is conjugated to an enzyme preferably to peroxidase.
H) A second step of washing, in which the microtiter plate is washed with the blocking solution, preferably repeating 4-times and avoiding that microtiter plate becomes dry when eliminating the blocking solution.
I) A fifth step of addition and incubation, in which an effective quantity of the peroxidase sustrates is added to each one of the wells and this microtiter plate is incubated for 0.1 to 0.5 h at a temperature between .35 and 40° C., stopping the peroxidase reaction by adding an effective quantity of sulfuric acid.
J) A step of analysis, in which microtiter plate is analyzed using a reading device for ELISA plates, preferably at 492 nm.
In a specific embodiment, the hapten solution is obtained dissolving hapten in a buffer solution at pH between 7.0 and 7.4, in a relationship from 0.1 to 10 mmoles of hapten per liter of buffer solution.
Costar microtiter plates, with 96 flat-bottom wells with a high lipidic antigens binding property (Costar Co. Cambrige, USA) were coated by the addition to each one of the wells of 100 μl of liposomes made from egg-yolk phosphatidylcholine:phosphatidate (2:1 molar ratio) in Tris-NaCl buffer (10 mM, 1 mM) pH 7, containing 0.1 μmol of phosphatidate, and treated with 5 mM CaCl2 to induce lipidic particles formation. Microtiter plates were incubated at room temperature for 1 h and they were blocked for 1 h at room temperature in a similar way as was described in Example 1. […]

Ag4 mouse myeloma cells [1] = test: Lipidic particles reversion in cells; type: cell-based; conditions: chlorpromazine 0.2 mM for 30 min before stabilizer drug
Method: (§1) Examples 7 and 7A were repeated using as antigens egg-yolk phosphatidylcholine:phosphatidate (2:1 molar ratio) liposomes, in Tris-NaCl buffer (10 mM, 1 mM) pH 7, and containing 0.1 μmol of phosphatidate, or Ag4 mouse myeloma cells. […] Stabilizer drugs were used at the concentrations used in Example 7A.

[2] = test system: egg-yolk phosphatidylcholine:phosphatidate (2:1 molar ratio) liposomes; test: Lipidic particles reversion in liposomes; conditions: chlorpromazine 0.2 mM for 30 min before stabilizer drug
Method: as §1

[3] = test system: egg-yolk phosphatidylcholine:phosphatidate (2:1 molar ratio) liposomes; test: Stabilization of liposomal membranes (liposomal cytofluorometry, SSC/FSC); conditions: without chlorpromazine
Ag4 mouse myeloma cells [4] = test: Stabilization of cellular membranes (cytofluorometry); type: cell-based; conditions: chlorpromazine 0.2 mM plus stabilizer drug; for development of lipidic particles in Ag4 cellular membranes: 30 min
Method: The reaction of these stabilized Ag4 mouse myeloma cells with […] monoclonal antibody was analyzed by the cytofluorometry method in a FACSCalibur Flow Cytometer equipped with a single […] argon laser beam (Beckton Dickinson). Relative size and/or Ag4 mouse myeloma cells aggregation were analyzed in the FSC channel and the granularity or cellular membranes complexity in the SSC channel. Analysis of 10,000 […] mouse myeloma cells was made with the following detectors: FSC in […] in lineal mode with an amplifier gain of 2 V, with a detector compensation threshold of 52 V, and SSC of 250 V. The obtained data were analyzed with the Cellquest program (Beckton Dickinson).

BALB/c female mice [5] = test: Treatment of the pathology induced by H308 monoclonal antibody in mice; type: in vivo, mouse; conditions: for therapeutically effective quantity: of body weight, BALB/c female mice given H308
Method: H308 monoclonal antibody was administered by intraperitoneal injection of 1 μg each week during two months to BALB/c female mice, and simultaneously the glycerolphosphorylcholine hapten was administered at 2.5 mg/Kg, of body weight, doses by intravenous injection each 24 hs, for 2-months.
Spermidine was administered, as chlorhydrate, in a dose of 1 mg/Kg, of body weight, by intraperitoneal injection each 24 hs, during two months.

[6] = test system: egg-yolk phosphatidylcholine:phosphatidate (2:1 molar ratio) liposomes; test: Stabilization of liposomal membranes (liposomal cytofluorometry, SSC/FSC); conditions: for concentration effective in stabilizing lipidic bilayers: blocks lipidic particles induced by chlorpromazine at 0.2 mM and 0.6 mM; for lipidic particles formation and liposomal aggregation, simultaneous incubation with chlorpromazine: liposomes incubated simultaneously with chlorpromazine and stabilizer drug; for reaction of stabilized liposomes with H308 monoclonal antibody: liposomes incubated with chlorpromazine and stabilizer drug
Method: In relation to the stabilization of membranes with drugs that avoid the formation of lipidic particles in liposomal model membranes or in cellular membranes, which in turn avoid the subsequent union of anti-lipidic particles antibodies, the studies were carried out with liposomal or cellular antigens using the cytofluorometry method. In a favorite modality this method includes the following steps:
A) A first step of incubation, in which the antigen suspension, liposomes or cells, are incubated with a drug that stabilizes its lipidic bilayers, this drug being used at a concentration of 0.1 up to 100 mM, the obtained mixture is incubated for 0.25 to 2 h at a temperature between 35 and 40° C.
These studies were carried out with a modification in the liposomal cytofluorometry method with liposomes made from egg-yolk phosphatidylcholine:phosphatidate (2:1 molar ratio) in Tris-NaCl buffer (10 mM, 1 mM) pH 7, containing 0.1 μmol of phosphatidate, and treated with 0.2 mM chlorpromazine to induce lipidic particles formation, as antigens.
Liposomal preparations were incubated for 30 min at room temperature and were used as antigens. The reaction of these stabilized liposomes with H308 monoclonal antibody was analyzed by the liposomal cytofluorometry method as was described in Example 2A, in a FACSCalibur Flow Cytometer equipped with a single 488 nm argon laser beam (Beckton Dickinson).
Relative size and/or liposomal aggregation were analyzed in the FSC channel and the granularity or liposomal bilayers complexity in the SSC channel. Analysis of 10,000 liposomes was made in a logarithmic mode with the following detectors: FSC in E00, with a detector compensation threshold of 52 V and SSC of 401 V (Baeza et al., op. cit., 1995). The obtained data were analyzed with the Cellquest program (Beckton Dickinson).

BALB/c female mice [7] = test: Induction of anti-lipidic particles antibodies and pathology in immunized/treated mice; type: in vivo, mouse; conditions: for pathology developed in BALB/c female mice: after immunization or treatment as in Examples 4A-4C; for immunized BALB/c female mice that produced anti-lipidic particles antibodies: intramuscular, chlorpromazine 3 mg/Kg or procainamide 10 mg/Kg each 24 hs for 2-months
Method: Ten, 2-months age, BALB/c female mice were immunized by intrasplenic injection of 100 μg of egg-yolk phosphatidylcholine:phosphatidate liposomes (2:1 molar ratio) in Tris-NaCl buffer (10 mM, 1 mM) pH 7, containing 0.1 μmol of phosphatidate, and treated with MnCl2 5 mM to induce lipidic particles formation. Intrasplenic immunization was repeated 2-weeks later by the method described by Nilsson et al. (op. cit. 1987). Additionally, BALB/c female mice were intraperitoneally injected with the same liposomes dose 2-weeks later, then they were boosted 4-times at 2-weeks intervals.
After seven days of the last immunization female mice were bled from the orbital sinus to analyze the presence of anti-lipidic particles antibodies in the obtained sera. Using this immunization procedure, 60% of the immunized BALB/c female mice produced anti-lipidic particles antibodies.
Ten, 2-months age, BALB/c female mice were immunized by intrasplenic injection of 100 μg of egg-yolk phosphatidylcholine:phosphatidate liposomes (2:1 molar ratio) in Tris-NaCl buffer (10 mM, 1 mM) pH 7, containing 0.1 μmol of phosphatidate, and treated with the lipidic particles inducer drug procainamide at a concentration of 8 mM. Immunization was carried out as it was indicated in Example 4. After seven days of the last immunization female mice were bled from the orbital sinus to analyze the presence of anti-lipidic particles antibodies in the obtained sera. Using this immunization procedure, 70% of the immunized BALB/c female mice produced anti-lipidic particles antibodies.
Ten, 2-months age, BALB/c female mice were immunized by intramuscular injection of the lipidic particles inducer drugs chlorpromazine or procainamide, using 3 mg/Kg, of body weight, for chlorpromazine and 10 mg/Kg, of body weight, for procainamide, each 24 hs, for 2-months. Drug doses were similar to those that are administered in the medical treatment of humans; in psychotic and maniacs dysfunctions for chlorpromazine and those that were used for the treatment of cardiac arrhythmias for procainamide.
After seven days of the last intramuscular injection female mice were bled from the orbital sinus to analyze the presence of anti-lipidic particles antibodies in the obtained sera. Using this immunization procedure, 50% of the immunized BALB/c female mice produced anti-lipidic particles antibodies.
Ten, 2-months age, BALB/c female mice were immunized by intraperitoneal injection of 1 μg of anti-lipidic particles H308 monoclonal antibody, each week, for 2-months. After seven days of the last intraperitoneal injection female mice were bled from the orbital sinus to analyze the presence of anti-lipidic particles antibodies in the obtained sera. […]

## NC(COP(=O)(O)O)C(=O)O (stereo not drawn) [phosphorylserine]
H308 monoclonal antibody
  inhibition of H308 monoclonal antibody reaction with lipidic particles in liposomes: do not cause any inhibition

## NCCCCNCCCN [spermidine]
Ag4 mouse myeloma cells [1]
  reversion of lipidic particles and cellular aggregation caused by chlorpromazine: reverted
[2]
  reversion of lipidic particles and liposomal aggregation caused by chlorpromazine: reverted
[3]
  change in liposomal aggregation and liposomal bilayers complexity, stabilizer drug alone: do not produce any change
Ag4 mouse myeloma cells [4]
  reaction of stabilized Ag4 cells with H308 monoclonal antibody: do not react with the H308 monoclonal antibody
  development of lipidic particles in Ag4 cellular membranes: do not develop lipidic particles with chlorpromazine
BALB/c female mice [5]; as chlorhydrate, 1 mg/Kg intraperitoneal each 24 hs, two months
  development of mice pathology induced by H308 monoclonal antibody: results similar to those described with chloroquine
BALB/c female mice [5]
  therapeutically effective quantity: 1 mg/kg
[6]
  concentration effective in stabilizing lipidic bilayers: 5 µM
  lipidic particles formation and liposomal aggregation, simultaneous incubation with chlorpromazine: there were not lipidic particles formation neither liposomal aggregation
  reaction of stabilized liposomes with H308 monoclonal antibody: do not react with H308 monoclonal antibody

## N[C@@H](COP(=O)(O)OCC(O)CO)C(=O)O (stereo partly drawn) [glycerolphosphorylserine]
H308 monoclonal antibody
  inhibition of H308 monoclonal antibody reaction with lipidic particles in liposomes: do not cause any inhibition

## C[N+](C)(C)CCOP(=O)(O)O [phosphorylcholine]
H308 monoclonal antibody; 0.6 μmoles of hapten
  absorbance at 492 nm of H308 immunoreaction: 0.06
H308 monoclonal antibody; 0.6 μmoles of hapten, with regard to reaction in absence of hapten
  inhibition in immunoreaction of H308 monoclonal antibody: 82%

## CCN(CC)CCCC(C)Nc1ccnc2cc(Cl)ccc12 (stereo not drawn) [chloroquine]
Ag4 mouse myeloma cells [1]
  reversion of lipidic particles and cellular aggregation caused by chlorpromazine: reverted
[2]
  reversion of lipidic particles and liposomal aggregation caused by chlorpromazine: reverted
[3]
  change in liposomal aggregation and liposomal bilayers complexity, stabilizer drug alone: do not produce any change
Ag4 mouse myeloma cells [4]
  reaction of stabilized Ag4 cells with H308 monoclonal antibody: do not react with the H308 monoclonal antibody
  development of lipidic particles in Ag4 cellular membranes: do not develop lipidic particles with chlorpromazine
BALB/c female mice [5]
  therapeutically effective quantity: 2.5 mg/kg
[6]
  concentration effective in stabilizing lipidic bilayers: 0.1 µM
  lipidic particles formation and liposomal aggregation, simultaneous incubation with chlorpromazine: there were not lipidic particles formation neither liposomal aggregation
  reaction of stabilized liposomes with H308 monoclonal antibody: do not react with H308 monoclonal antibody

## CCN(CC)CCNC(=O)c1ccc(N)cc1 [procainamide]
BALB/c female mice [7]
  pathology developed in BALB/c female mice: development of a pathology similar to the human antiphospholipid syndrome secondary to systemic lupus erythematosus
  immunized BALB/c female mice that produced anti-lipidic particles antibodies: 50%

## CN(C)CCCN1c2ccccc2Sc2ccc(Cl)cc21 [chlorpromazine]
BALB/c female mice [7]
  pathology developed in BALB/c female mice: development of a pathology similar to the human antiphospholipid syndrome secondary to systemic lupus erythematosus
  immunized BALB/c female mice that produced anti-lipidic particles antibodies: 50%
[6]; 0.2 mM
  increase in SSC and FSC values (lipidic particles and liposomal aggregation): 100 fold
[6]; graph B, FIG. 16, presence of lipidic particles
  SSC values: higher than 1000 units

## NCCOP(=O)(O)O [phosphorylethanolamine]
H308 monoclonal antibody
  inhibition of H308 monoclonal antibody reaction with lipidic particles in liposomes: do not cause any inhibition
